The source of these data is article PMC9239997, “Structural basis for mitoguardin-2 mediated lipid transport at ER-mitochondrial membrane contact sites” (Nature Communications, 2022).

Numbering of substitutions follows the chain as printed.

Experiment in all cases: Clear Native-PAGE, NBD fluorescence
Type in all cases: binding

The target of one assay is T1, mMIGA1^313–573 (Mus musculus, UniProt Q4QQM5).
T1 construct: gene Miga1; LD targeting domain, residues 313-573; E. coli; His6 tag cleaved by TEV
T1 sequence (Q4QQM5 313-573): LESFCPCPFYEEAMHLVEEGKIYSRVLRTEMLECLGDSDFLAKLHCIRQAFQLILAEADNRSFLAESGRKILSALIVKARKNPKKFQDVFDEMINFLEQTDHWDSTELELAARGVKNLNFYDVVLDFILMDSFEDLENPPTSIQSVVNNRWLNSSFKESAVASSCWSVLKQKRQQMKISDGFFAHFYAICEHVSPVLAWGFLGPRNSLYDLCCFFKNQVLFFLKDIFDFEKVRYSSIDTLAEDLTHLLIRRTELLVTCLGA
The settings on record: labelled compound; pH 7.5, on ice, 2 h.

The target of assay [1] is T2, zMiga2 (Danio rerio, UniProt Q5BLE2).
T2 construct: gene miga2; LD targeting domain, residues 310-568; E. coli BL21(DE3); His6 tag cleaved by TEV
T2 sequence (Q5BLE2 310-568): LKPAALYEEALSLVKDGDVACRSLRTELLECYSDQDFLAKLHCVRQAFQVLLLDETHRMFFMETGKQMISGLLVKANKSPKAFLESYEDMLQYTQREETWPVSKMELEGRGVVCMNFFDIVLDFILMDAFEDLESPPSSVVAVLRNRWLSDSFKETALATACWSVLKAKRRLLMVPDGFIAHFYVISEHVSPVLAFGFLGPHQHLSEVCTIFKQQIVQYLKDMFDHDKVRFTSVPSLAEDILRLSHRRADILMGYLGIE
Particulars: labelled compound; pH 7.5, on ice, 2 h; hydrophobic cavity.

Assay [2] has as its target T3, zMiga2 (Danio rerio, UniProt Q5BLE2, F488W).
T3 construct: gene miga2; LD targeting domain, residues 310-568; E. coli BL21(DE3); His6 tag cleaved by TEV
T3 sequence (Q5BLE2 310-568 F488W): T2 sequence (Q5BLE2 310-568) with F179W
The settings on record: labelled compound; pH 7.5, on ice, 2 h.

For assay [3], the target named is T4, zMiga2 (Danio rerio, UniProt Q5BLE2, W409A).
T4 construct: gene miga2; LD targeting domain, residues 310-568; E. coli BL21(DE3); His6 tag cleaved by TEV
T4 sequence (Q5BLE2 310-568 W409A): T2 sequence (Q5BLE2 310-568) with W100A
Particulars: labelled compound; pH 7.5, on ice, 2 h.

For assay [4], the target named is T5, zMiga2 (Danio rerio, UniProt Q5BLE2, V430W).
T5 construct: gene miga2; LD targeting domain, residues 310-568; E. coli BL21(DE3); His6 tag cleaved by TEV
T5 sequence (Q5BLE2 310-568 V430W): T2 sequence (Q5BLE2 310-568) with V121W
Particulars: labelled compound; pH 7.5, on ice, 2 h.

The target in assay [5] is T6, zMiga2 (Danio rerio, UniProt Q5BLE2, V430W/F488W).
T6 construct: gene miga2; LD targeting domain, residues 310-568; E. coli BL21(DE3); His6 tag cleaved by TEV
T6 sequence (Q5BLE2 310-568 V430W/F488W): T2 sequence (Q5BLE2 310-568) with V121W, F179W
The settings on record: labelled compound; pH 7.5, on ice, 2 h.

As for `CCCCCCCC/C=C\CCCCCCCC(=O)OC[C@H](COP(=O)(O)OCCNc1ccc([N+](=O)[O-])c2nonc12)OC(=O)CCCCCCC/C=C\CCCCCCCC` [NBD-PE, 1,2-dioleoyl-sn-glycero-3-phosphoethanolamine-N-(7-nitro-2-1,3-benzoxadiazol-4-yl)], the “Clear Native-PAGE, NBD fluorescence” value at mMIGA1^313–573 is reported as “NBD-PE binding by MIGA1 was markedly lower than that by MIGA2”; at zMiga2 [1] it was “explored the ability of the mutant proteins to interact with NBD-PE”. Further, the “lipid binding relative to WT” value at zMiga2 [2] is reported as “the V430W or F488W single mutant showed a slight decrease in NBD-PE binding”; on zMiga2 [4] it was “the V430W or F488W single mutant showed a slight decrease in NBD-PE binding”; on zMiga2 [5], “double mutant showed decreased lipid-binding that was less than half of that of the wild type”. The “NBD-PE binding relative to WT” value on zMiga2 [3] is listed as ~ 2 fold.
